Among the data in PubChem BioAssay AID1745844 (Carcinogenic Potency Database (CPDB), 2022) are TD50 and carcinogen call values, retold here.

“And” between values parts separate entries of the source, which are not always exact repeats. Equal entries are not always repeated. The source made the active and inactive calls. How the calls were made is not given here.

The data set deals with rodent lifetime carcinogenesis bioassay, tumor incidence TD50. Put plainly: chronic cancer bioassays in animals – CPDB, compiled studies (AID 1745844).
Where [1] appears, read: rat, strain Sprague-Dawley, females, by gavage, site: liver, lesion: hepatocellular carcinoma, dosed 52 weeks, study length 65 weeks.

As usually defined, the TD50 is the dose at which the toxic effect under study appears in half of the subjects.

With `O=NN(CC(=O)O)CC(=O)O`, the TD50 (rat, strain MRC, females, in drinking water, site: any site (literature study), lesion: several types, types named in the paper, dosed 72 weeks, study length 104 weeks) is 63.9 mg/kg/day (inactive); the TD50 (rat, strain MRC, males, in drinking water, site: any site (literature study), lesion: several types, types named in the paper, dosed 72 weeks, study length 104 weeks) was 76 mg/kg/day (inactive); the TD50 (rat, strain MRC, males, in drinking water, site: pituitary gland, lesion: one or several types, types not named, dosed 72 weeks, study length 104 weeks) is 66.9 mg/kg/day (inactive).

For the molecule `CN(C)Nc1nc(-c2ccc([N+](=O)[O-])o2)cs1`, the TD50 is, setting by setting: (rat, strain Sprague-Dawley, females, in feed, site: all sites, lesion: lymphoblastic lymphoma, dosed 46 weeks, study length 66 weeks) 16.3 mg/kg/day; (rat, strain Sprague-Dawley, females, in feed, site: mammary gland, lesion: adenocarcinoma, dosed 46 weeks, study length 66 weeks) 0.391 mg/kg/day. In addition, the carcinogen call (rat, strain Sprague-Dawley, females, in feed, site: mammary gland, lesion: several types, types named in the paper, dosed 46 weeks, study length 66 weeks) was “positive”.

As to `O=S(=O)(c1ccc(Cl)cc1)c1cc(Cl)c(Cl)cc1Cl`, the TD50 (mouse, strain B6AKF1, females, oral dosing, site: any site (literature study), lesion: several types, types named in the paper, dosed 76 weeks, study length 76 weeks) was 233 mg/kg/day (inactive); the TD50 (mouse, strain B6AKF1, females, oral dosing, site: liver, lesion: hepatoma, dosed 76 weeks, study length 76 weeks) was 233 mg/kg/day (inactive); the TD50 (mouse, strain B6C3F1, females, oral dosing, site: any site (literature study), lesion: several types, types named in the paper, dosed 76 weeks, study length 76 weeks) is 220 mg/kg/day (inactive); the TD50 (mouse, strain B6C3F1, males, oral dosing, site: any site (literature study), lesion: several types, types named in the paper, dosed 76 weeks, study length 76 weeks) was 35.6 mg/kg/day (inactive); the TD50 (mouse, strain B6C3F1, males, oral dosing, site: liver, lesion: hepatoma, dosed 76 weeks, study length 76 weeks) was 46.2 mg/kg/day (inactive); the TD50 (mouse, strain B6C3F1, males, oral dosing, site: lung, lesion: adenoma, dosed 76 weeks, study length 76 weeks) is 205 mg/kg/day (inactive). Also, the carcinogen call runs as follows: (mouse, strain B6AKF1, females, oral dosing, site: lung, lesion: adenoma, dosed 76 weeks, study length 76 weeks) “negative (inactive)”; (mouse, strain B6AKF1, males, oral dosing, site: any site (literature study), lesion: several types, types named in the paper, dosed 76 weeks, study length 76 weeks) “negative (inactive)”; (mouse, strain B6AKF1, males, oral dosing, site: liver, lesion: hepatoma, dosed 76 weeks, study length 76 weeks) “negative (inactive)”; (mouse, strain B6AKF1, males, oral dosing, site: lung, lesion: adenoma, dosed 76 weeks, study length 76 weeks) “negative (inactive)”; (mouse, strain B6C3F1, females, oral dosing, site: liver, lesion: hepatoma, dosed 76 weeks, study length 76 weeks) “negative (inactive)”; (mouse, strain B6C3F1, females, oral dosing, site: lung, lesion: several types, types named in the paper, dosed 76 weeks, study length 76 weeks) “negative (inactive)”.

As for `CC/C(=C(\c1ccccc1)c1ccc(OCCN(C)C)cc1)c1ccccc1`, the TD50 reads like this: (mouse, strain AP Alderly Park, females, several routes, site: ovary, lesion: granulosa-cell adenoma, dosed 65 weeks, study length 65 weeks) 3 mg/kg/day; (mouse, strain AP Alderly Park, males, several routes, site: testis, lesion: interstitial-cell adenoma, dosed 65 weeks, study length 65 weeks) 8.18 mg/kg/day; (mouse, strain AP Alderly Park, males, several routes, site: testis, lesion: interstitial-cell tumor, dosed 56 weeks, study length 56 weeks) 9.8 mg/kg/day; (mouse, strain B6C3F1, females, in feed, site: liver, lesion: hepatocellular adenoma, dosed 104 weeks, study length 104 weeks) 101 mg/kg/day (inactive); (rat, strain Alpk:APfSD, females, by gavage, site: liver, lesion: biliary cystadenoma, dosed 88 weeks, study length 107 weeks) 706 mg/kg/day; (rat, strain Alpk:APfSD, females, by gavage, site: liver, lesion: cholangioma, dosed 88 weeks, study length 107 weeks) 2260 mg/kg/day. The TD50 runs as follows: (rat, strain Alpk:APfSD, females, by gavage, site: liver, lesion: hepatocellular adenoma, dosed 88 weeks, study length 107 weeks) 135 mg/kg/day; (rat, strain Alpk:APfSD, females, by gavage, site: liver, lesion: hepatocellular carcinoma, dosed 88 weeks, study length 107 weeks) 17 mg/kg/day; (rat, strain Alpk:APfSD, females, by gavage, site: liver, lesion: hepatocholangiocarcinoma, dosed 88 weeks, study length 107 weeks) 241 mg/kg/day; (rat, strain Alpk:APfSD, males, by gavage, site: liver, lesion: biliary cystadenoma, dosed 88 weeks, study length 107 weeks) 1100 mg/kg/day; (rat, strain Alpk:APfSD, males, by gavage, site: liver, lesion: hepatocellular adenoma, dosed 88 weeks, study length 107 weeks) 47.9 mg/kg/day; (rat, strain Alpk:APfSD, males, by gavage, site: liver, lesion: hepatocellular carcinoma, dosed 88 weeks, study length 107 weeks) 18.7 mg/kg/day. For the same molecule, the TD50 reads like this: (rat, strain Alpk:APfSD, males, by gavage, site: liver, lesion: hepatocholangiocarcinoma, dosed 88 weeks, study length 107 weeks) 306 mg/kg/day; (rat, strain Charles River CD (Sprague-Dawley), females, by gavage, site: liver, lesion: hepatocellular adenoma, dosed 51 weeks, study length 65 weeks) 7.77 mg/kg/day; (rat, strain Charles River CD (Sprague-Dawley), females, by gavage, site: liver, lesion: hepatocellular adenoma, dosed 52 weeks, study length 65 weeks) 4.35 mg/kg/day; (rat, strain Charles River CD (Sprague-Dawley), females, by gavage, site: liver, lesion: hepatocellular carcinoma, dosed 51 weeks, study length 65 weeks) 7.77 mg/kg/day; (rat, strain Charles River CD (Sprague-Dawley), females, by gavage, site: liver, lesion: hepatocellular carcinoma, dosed 52 weeks, study length 52 weeks) 2.12 mg/kg/day and 10.3 mg/kg/day; (rat, strain Charles River CD (Sprague-Dawley), females, by gavage, site: liver, lesion: hepatocellular carcinoma, dosed 52 weeks, study length 65 weeks) 4.62 mg/kg/day. The TD50 was 1.44 mg/kg/day (rat, strain Charles River CD (Sprague-Dawley), females, by gavage, site: liver, lesion: several types, types named in the paper, dosed 52 weeks, study length 52 weeks); 3.86 mg/kg/day (rat, strain Charles River CD (Sprague-Dawley), females, by gavage, site: liver, lesion: several types, types named in the paper, dosed 52 weeks, study length 65 weeks); 4.18 mg/kg/day (rat, strain Fischer 344/Tox, females, in feed, site: liver, lesion: hepatocellular carcinoma, dosed 86 weeks, study length 86 weeks); 1.38 mg/kg/day (rat, strain Lewis, females, in feed, site: liver, lesion: hepatocellular carcinoma, dosed 48 weeks, study length 48 weeks); 88.7 mg/kg/day (rat, strain Sprague-Dawley, females, by gavage, site: any site (literature study), lesion: malignant tumor, dosed 167 weeks, study length 167 weeks); 497 mg/kg/day (rat, strain Sprague-Dawley, females, by gavage, site: liver, lesion: hepatocellular adenoma, dosed 167 weeks, study length 167 weeks). The TD50 (rat, strain Sprague-Dawley, females, by gavage, site: liver, lesion: hepatocellular carcinoma, dosed 52 weeks, study length 52 weeks) is 11.8 mg/kg/day and 7.56 mg/kg/day and 4.79 mg/kg/day; the TD50 under setting [1] is 18.9 mg/kg/day and 6 mg/kg/day; the TD50 (rat, strain Sprague-Dawley, females, by gavage, site: liver, lesion: hepatocellular carcinoma, dosed 167 weeks, study length 167 weeks) came out at 164 mg/kg/day; the TD50 (rat, strain Sprague-Dawley, females, by gavage, site: uterus, lesion: fibroma, dosed 167 weeks, study length 167 weeks) was found to be 247 mg/kg/day; the TD50 (rat, strain Sprague-Dawley, females, by gavage, site: uterus, lesion: sarcoma, dosed 167 weeks, study length 167 weeks) was 487 mg/kg/day; the TD50 (rat, strain Sprague-Dawley, females, by gavage, site: uterus, lesion: squamous-cell carcinoma, dosed 167 weeks, study length 167 weeks) was determined as 497 mg/kg/day. For the same molecule, the TD50 reads like this: (rat, strain Sprague-Dawley, females, by gavage, site: vagina, lesion: squamous-cell carcinoma, dosed 167 weeks, study length 167 weeks) 497 mg/kg/day; (rat, strain Sprague-Dawley, males, by gavage, site: any site (literature study), lesion: malignant tumor, dosed 167 weeks, study length 167 weeks) 187 mg/kg/day; (rat, strain Sprague-Dawley, males, by gavage, site: liver, lesion: hepatocellular adenoma, dosed 167 weeks, study length 167 weeks) 497 mg/kg/day; (rat, strain Sprague-Dawley, males, by gavage, site: liver, lesion: hepatocellular carcinoma, dosed 167 weeks, study length 167 weeks) 247 mg/kg/day; (rat, strain Sprague-Dawley, males, by gavage, site: mammary tissue, wider than the gland, lesion: adenocarcinoma, dosed 167 weeks, study length 167 weeks) 247 mg/kg/day; (rat, strain Sprague-Dawley, males, by gavage, site: mammary tissue, wider than the gland, lesion: benign tumor, dosed 167 weeks, study length 167 weeks) 96.4 mg/kg/day. For the same molecule, the TD50 (rat, strain Wistar/LAC-P, females, in feed, site: liver, lesion: hepatocellular carcinoma, dosed 49 weeks, study length 49 weeks) is 1.36 mg/kg/day. Besides, the carcinogen call by setting is: (mouse, strain B6C3F1, females, in feed, site: lung, lesion: alveolar-cell carcinoma, dosed 104 weeks, study length 104 weeks) “negative (inactive)”; (mouse, strain B6C3F1, females, in feed, site: uterus, lesion: leiomyoma, dosed 104 weeks, study length 104 weeks) “negative (inactive)”; (mouse, strain C57BL/6, females, in feed, site: liver, lesion: hepatocellular carcinoma, dosed 52 weeks, study length 52 weeks) “negative (inactive)”; (mouse, strain DBA/2, females, in feed, site: liver, lesion: hepatocellular carcinoma, dosed 52 weeks, study length 52 weeks) “negative (inactive)”; under setting [1], “positive”; (rat, strain Sprague-Dawley, females, by gavage, site: liver, lesion: several types, types named in the paper, dosed 52 weeks, study length 52 weeks) “positive”.
